Assays:
Test in all cases: OncoPanel cytotoxicity assay
Assay type in all cases: cell-based
639-V = conditions: Homo sapiens, 72 hour incubation
Method in brief: (§1)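 Cells grown in RPMI 1640 with 10% FBS (or a special medium) at 37° C, 5% CO2 were treated 24 hours after seeding for 72 hours with 10 concentrations (3.16-fold dilutions, 0.1% DMSO final). Nuclei were dye-stained and imaged; IC50 was fit from percent of control relative cell count.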

786-O = conditions: Homo sapiens, 786-0, 72 hour incubation
Method in brief: as §1

A375 = conditions: Homo sapiens, A-375, 72 hour incubation
Method in brief: as §1

A427 = conditions: Homo sapiens, A-427, 72 hour incubation
Method in brief: as §1

A498 = conditions: Homo sapiens, 72 hour incubation
Method in brief: as §1

ACHN = conditions: Homo sapiens, 72 hour incubation
Method in brief: as §1

C-4 I = conditions: Homo sapiens, 72 hour incubation
Method in brief: as §1

CAMA-1 = conditions: Homo sapiens, 72 hour incubation
Method in brief: as §1

CHL-1 = conditions: Homo sapiens, 72 hour incubation
Method in brief: as §1

Cal 27 = conditions: Homo sapiens, 72 hour incubation
Method in brief: as §1

Colo 205 = conditions: Homo sapiens, 72 hour incubation
Method in brief: as §1

DBTRG-05MG = conditions: Homo sapiens, 72 hour incubation
Method in brief: as §1

DLD-1 = conditions: Homo sapiens, 72 hour incubation
Method in brief: as §1

Daoy = conditions: Homo sapiens, 72 hour incubation
Method in brief: as §1

DoTc2 4510 = conditions: Homo sapiens, 72 hour incubation
Method in brief: as §1

ES-2 = conditions: Homo sapiens, 72 hour incubation
Method in brief: as §1

HCT-116 = conditions: Homo sapiens, 72 hour incubation
Method in brief: as §1

HMCB = conditions: Homo sapiens, 72 hour incubation
Method in brief: as §1

HuP-T4 = conditions: Homo sapiens, 72 hour incubation
Method in brief: as §1

LS-174T = conditions: Homo sapiens, LS174T, 72 hour incubation
Method in brief: as §1

MDA MB 453 = conditions: Homo sapiens, 72 hour incubation
Method in brief: as §1

MOLT-16 = conditions: Homo sapiens, 72 hour incubation
Method in brief: as §1

MOLT-3 = conditions: Homo sapiens, 72 hour incubation
Method in brief: as §1

NCI-H460 = conditions: Homo sapiens, 72 hour incubation
Method in brief: as §1

NCIH441 = conditions: Homo sapiens, NCI-H441, 72 hour incubation
Method in brief: as §1

PANC-1 = conditions: Homo sapiens, 72 hour incubation
Method in brief: as §1

PC-3 = conditions: Homo sapiens, 72 hour incubation
Method in brief: as §1

RKO-AS45-1 = conditions: Homo sapiens, RKOAS451, 72 hour incubation
Method in brief: as §1

RPMI 8226 = conditions: Homo sapiens, 72 hour incubation
Method in brief: as §1

SCaBER = conditions: Homo sapiens, 72 hour incubation
Method in brief: as §1

SK-MEL-3 = conditions: Homo sapiens, SK-MEL3, 72 hour incubation
Method in brief: as §1

ST486 = conditions: Homo sapiens, 72 hour incubation
Method in brief: as §1

SW1353 = conditions: Homo sapiens, 72 hour incubation
Method in brief: as §1

SW48 = conditions: Homo sapiens, 72 hour incubation
Method in brief: as §1

SW579 = conditions: Homo sapiens, 72 hour incubation
Method in brief: as §1

SW900 = conditions: Homo sapiens, 72 hour incubation
Method in brief: as §1

SW982 = conditions: Homo sapiens, 72 hour incubation
Method in brief: as §1

T47D = conditions: Homo sapiens, 72 hour incubation
Method in brief: as §1

U2OS = conditions: Homo sapiens, 72 hour incubation
Method in brief: as §1

| Structure (SMILES) | IC50 (639-V) | IC50 (786-O) | IC50 (A375) | IC50 (A427) | IC50 (A498) | IC50 (ACHN) | IC50 (C-4 I) | IC50 (CAMA-1) | IC50 (CHL-1) | IC50 (Cal 27) | IC50 (Colo 205) | IC50 (DBTRG-05MG) | IC50 (DLD-1) | IC50 (Daoy) | IC50 (DoTc2 4510) | IC50 (ES-2) | IC50 (HCT-116) | IC50 (HMCB) | IC50 (HuP-T4) | IC50 (LS-174T) | other results |
| --- | --- | --- | --- | --- | --- | --- | --- | --- | --- | --- | --- | --- | --- | --- | --- | --- | --- | --- | --- | --- | --- |
| CC[C@@H]1CNC2(CC2)CN1C(=O)[C@@H]1C[C@@H](F)CN1C(=O)C1=C(C(C)C)N2C(=N[C@@](C)(c3ccc(Cl)nc3)[C@H]2c2ccc(Cl)c(F)c2)S1 [Compound A, [(5R,6S)-5-(4-Chloro-3-fluorophenyl)-6-(6-chloropyridin-3-yl)-6-methyl-3-(propan-2-yl)-5,6-dihydroimidazo[2,1-b][1,3]thiazol-2-yl][(2S,4R)-2-{[(6R)-6-ethyl-4,7-diazaspiro[2.5]oct-7-yl]carbonyl}-4-fluoropyrrolidin-1-yl]methanone] | > 40 µM | 37.3 µM | 0.317 µM | 1.65 µM | 1.71 µM | 1.07 µM | > 40 µM | > 40 µM | > 40 µM | > 40 µM | 36.7 µM | 0.132 µM | > 40 µM | > 40 µM | 39.6 µM | 14.5 µM | 0.653 µM | > 40 µM | > 40 µM | 0.497 µM | IC50 (MDA MB 453): 32.8 µM; IC50 (MOLT-16): 0.236 µM; IC50 (MOLT-3): 0.605 µM; IC50 (NCI-H460): 0.515 µM; IC50 (NCIH441): > 40 µM; IC50 (PANC-1): > 40 µM; IC50 (PC-3): > 40 µM; IC50 (RKO-AS45-1): 0.471 µM; IC50 (RPMI 8226): > 40 µM; IC50 (SCaBER): > 40 µM; IC50 (SK-MEL-3): > 40 µM; IC50 (ST486): 24.3 µM; IC50 (SW1353): 1.68 µM; IC50 (SW48): 1.09 µM; IC50 (SW579): > 40 µM; IC50 (SW900): > 40 µM; IC50 (SW982): 0.232 µM; IC50 (T47D): 32.3 µM; IC50 (U2OS): 1.24 µM |
| CC1(C)CCC2(CC1)N[C@@H](C(=O)N[C@@H]1CC[C@@H](C(N)=O)OC1)[C@H](c1ccnc(Cl)c1F)[C@]21C(=O)Nc2cc(Cl)ccc21 [Compound B, (3′R,4′S,5′R)—N-[(3R,6S)-6-carbamoyltetrahydro-2H-pyran-3-yl]-6″-chloro-4′-(2-chloro-3-fluoropyridin-4-yl)-4,4-dimethyl-2″-oxo-1″,2″-dihydrodispiro[cyclohexane-1,2′-pyrrolidine-3′,3″-indole]-5′-carboxamide] | 6.39 µM | 0.342 µM | 0.0434 µM | 0.143 µM | 0.119 µM | 0.174 µM | 7.21 µM | > 10 µM | 9.1 µM | > 10 µM | 9.48 µM | 0.0846 µM | 8.91 µM | > 10 µM | > 10 µM | 6.3 µM | 0.0505 µM | 5.49 µM | > 10 µM | 0.0615 µM | IC50 (MDA MB 453): 9.29 µM; IC50 (MOLT-16): 0.0598 µM; IC50 (MOLT-3): 0.0332 µM; IC50 (NCI-H460): 0.0664 µM; IC50 (NCIH441): > 10 µM; IC50 (PANC-1): 6.73 µM; IC50 (PC-3): > 10 µM; IC50 (RKO-AS45-1): 0.074 µM; IC50 (RPMI 8226): 0.065 µM; IC50 (SCaBER): > 10 µM; IC50 (SK-MEL-3): > 10 µM; IC50 (ST486): 6.44 µM; IC50 (SW1353): 0.0853 µM; IC50 (SW48): 0.125 µM; IC50 (SW579): 9.61 µM; IC50 (SW900): > 10 µM; IC50 (SW982): 0.0209 µM; IC50 (T47D): 7.76 µM; IC50 (U2OS): 0.248 µM |

— patent publication US20160333419A1, “GENE SIGNATURES ASSOCIATED WITH SENSITIVITY TO MDM2 INHIBITORS” (DAIICHI SANKYO COMPANY, LIMITED, priority 2014, published 2016)
